Laboratory results as given in patent US6361792B1, “Lipid dispersions and methods of use” (Alliance Pharmaceutical Corp., priority 1987, dated 2002).
“Also recorded” adds a separate entry of the source.

What was measured:
[1] = tested on: conscious swine; test: Delayed febrile response (core body temperature) to intravenous lipid dispersion in conscious swine, with or without prophylaxis; assay type: in vivo; settings: for effect on febrile reaction to fluorocarbon emulsion: prophylactic treatment, dose not given
Procedure: Swine were instrumented 48 hours prior to study for determination of core body temperature using a catheter-tipped thermistor, and for intravenous injection using an axillary vein catheter. On the day of study, core body temperature was determined at baseline and at regular intervals for 6 h after intravenous injection of Imagent®BP.

[2] = biological target: T1, thromboxane synthetase (Rattus norvegicus, UniProt P49430); settings: in the rat; cited from earlier work
T1 sequence (P49430 1-533): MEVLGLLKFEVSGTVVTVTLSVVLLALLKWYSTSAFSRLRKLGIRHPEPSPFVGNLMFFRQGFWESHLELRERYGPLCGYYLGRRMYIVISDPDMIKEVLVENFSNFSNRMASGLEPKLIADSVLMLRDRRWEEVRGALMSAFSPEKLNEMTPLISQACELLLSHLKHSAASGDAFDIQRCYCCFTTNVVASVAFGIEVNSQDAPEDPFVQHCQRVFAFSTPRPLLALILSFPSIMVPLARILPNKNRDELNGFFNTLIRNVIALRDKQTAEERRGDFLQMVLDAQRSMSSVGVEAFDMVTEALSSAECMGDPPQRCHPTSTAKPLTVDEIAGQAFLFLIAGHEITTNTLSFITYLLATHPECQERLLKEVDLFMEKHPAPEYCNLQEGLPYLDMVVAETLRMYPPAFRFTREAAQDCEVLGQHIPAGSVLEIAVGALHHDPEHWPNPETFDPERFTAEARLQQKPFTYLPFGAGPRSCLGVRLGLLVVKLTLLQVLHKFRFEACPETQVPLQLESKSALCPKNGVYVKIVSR

[3] = tested on: anesthetized swine; test: Prophylaxis of the acute hemodynamic response to intravenous fluorocarbon emulsion with cyclooxygenase inhibitors
Description: All animals were fully anesthetized (ketamine-sodium pentobarbital), placed on positive pressure ventilation, and instrumented for determination of pulmonary artery pressure, cardiac output, ECG (electrocardiogram), right atrial pressure, and whole blood samples collections. Changes in skin color were also quantified using a relative color scale ranging from normal (light pink) to darker shades of pink and purple. Continuous electrocardiographs and oscillographic recordings of blood pressures were made. At least 30 minutes of baseline data were collected before intravascular administration of the substances. After control recordings, infusion of the pigs was carried out with 3 ml/kg body weight of either fluorocarbon emulsion as Imagent®BP (90% or 100% perfluorooctylbromide) or saline at a rate of 2 ml/min i.v. over 15 minutes.
A series of experiments was conducted to evaluate the effects of prophylactic treatment with cyclooxygenase inhibitors on the acute hemodynamic response to intravenous injection of 90% Imagent®BP in anesthetized swine. […] Animals receiving prophylaxis were administered indomethacin (0.5 mg/kg p.o.) prior to administration of the test article. Test swine were treated prophylactically with indomethacin, ibuprofen and aspirin.

[4] = tested on: tumor-bearing animals; settings: cited from earlier work

## CC(=O)Nc1ccc(O)cc1 [acetaminophen]
[1]
  effect on febrile reaction to fluorocarbon emulsion: not prevented

## O=C(O)CCCCCc1cccc2cncn12 [CGS 13080, imidazo(1,5-pyridine-5-hexanoic acid)]
[2]
  inhibition of thromboxane synthetase: act effectively to inhibit thromboxane synthetase

## CC(=O)Oc1ccccc1C(=O)O [aspirin, acetylsalicylic acid]
[3]; aspirin pretreatment vs Fluosol alone, FIG. 2
  effect on increased mPAP response to Fluosol (20% fluorocarbon emulsion): decreased response
[3]; aspirin prophylaxis, oral 5 mg/kg 1 h before
  blood cell counts (erythrocytes, leukocytes, platelets) after Imagent BP: nearly identical to that seen with the saline control
[3]; oral 5 mg/kg 1 h before Imagent BP (90%) 3 ml/kg i.v., 5 mg/kg
  effect on acute hemodynamic response (mPAP) to Imagent BP: prevent the acute hemodynamic response; also recorded: appeared to completely block any increases in mPAP
[1]
  effect on febrile reaction to fluorocarbon emulsion: not prevented

## CC(C)Cc1ccc(C(C)C(=O)O)cc1 (racemic) [ibuprofen, (±)-2-(p-isobutylphenyl)propionic acid]
[4]
  symptoms in reaction to intravenous fluorocarbon emulsion: alleviated
[3]; oral 20 mg/kg 1 h before Imagent BP 3 ml/kg i.v., 20 mg/kg
  effect on acute hemodynamic response (mPAP) to Imagent BP: prevent the acute hemodynamic response
[3]; oral 20 mg/kg 1 h before Imagent BP 3 ml/kg i.v., listed as Ibuprofen, 20 mg/kg
  effect on acute hemodynamic response (mPAP) to Imagent BP: significantly attenuated the mPAP responses
[1]; oral 20 mg/kg 1 h before injection, 6 h time course
  effect on febrile response to Imagent BP: significantly suppressed

## COc1ccc2cc([C@H](C)C(=O)O)ccc2c1 [naproxen]
[1]; oral 5 mg/kg 1 h before injection (naproxen), 5 mg/kg
  effect on febrile response to Imagent BP: attenuated febrile response

## COc1ccc2c(c1)c(CC(=O)O)c(C)n2C(=O)c1ccc(Cl)cc1 [indomethacin, 1-(pchlorobenzoyl)-5-methoxy-2-methylindole-3-acetic acid]
[3]; indomethacin i.v. bolus 10 mg/kg then 6 mg/kg/hr, Imagent BP 90% 3 ml/kg i.v.
  effect on acute hemodynamic response (mPAP) to Imagent BP: prevent the acute hemodynamic response; also recorded: virtually prevented all of the hemodynamic reactions

## Cn1ccnc1 [1-methyl-imidazole]
[2]
  inhibition of thromboxane synthetase: act effectively to inhibit thromboxane synthetase

## O=C(O)c1ccc(OCCn2ccnc2)cc1 [dazoxiben, 4-(2-(1 H-imidazol-1 yl)ethoxy)benzoic acid]
[2]
  inhibition of thromboxane synthetase: act effectively to inhibit thromboxane synthetase

## O=C(O)CCCCCCCn1ccnc1 [N(7-carboxyheptyl)imidazole]
[2]
  inhibition of thromboxane synthetase: act effectively to inhibit thromboxane synthetase

## methylprednisone
[1]; oral 5 mg/kg 12 h and 2 h before injection (methylprednisone), 5 mg/kg
  effect on febrile response to Imagent BP: attenuated febrile response
[1]; oral 5 mg/kg 12 h and 2 h before injection (methylprednisone), listed as Methylprednisone, 5 mg/kg
  effect on febrile response to Imagent BP: attenuates the response
